Measured values taken from patent publication US10039283B2, “Substituted pyrazolyl-nicotin(thio)amide derivatives and their use as fungicides” (BAYER CROPSCIENCE AKTIENGESELLSCHAFT, priority 2014, dated 2018).

Legend:
[1] = Log P by HPLC on reversed phase, method [a], acidic range (0.1% formic acid); format: physicochemical; details: LC-UV, 0.1% formic acid in water and acetonitrile
[2] = Log P by HPLC on reversed phase, method [b], neutral range (0.001 molar ammonium acetate); format: physicochemical
Description: Measurement of Log P values was performed according to EEC directive 79/831 Annex V.A8 by HPLC (High Performance Liquid Chromatography) on reversed phase columns with the following methods: [b] Log P value is determined by measurement of LC-UV, in a neutral range, with 0.001 molar ammonium acetate solution in water and acetonitrile as eluent (linear gradient from 10% acetonitrile to 95% acetonitrile). Calibration was done with straight-chain alkan2-ones (with 3 to 16 carbon atoms) with known Log P values (measurement of Log P values using retention times with linear interpolation between successive alkanones). Lambda-max-values were determined using UV-spectra from 200 nm to 400 nm and the peak values of the chromatographic signals.

| Structure (SMILES) | LogP [1] | LogP [2] |
| --- | --- | --- |
| O=C(Nc1cnn(-c2ccccc2Cl)c1C(F)(F)F)c1cccnc1C(F)(F)F [Example 20] | 2.87^[a]; | 2.80^[b] |
| O=C(Nc1cnn(-c2c(F)cccc2F)c1C(F)(F)F)c1cccnc1C(F)F [Example 21] | 2.50^[a]; | 2.43^[b] |
| O=C(Nc1cnn(-c2c(F)cccc2F)c1C(F)(F)F)c1cccnc1C(F)(F)F [Example 19] | 2.79^[a]; | 2.72^[b] |
| Cc1c(NC(=O)c2cccnc2C(F)F)cnn1-c1ccccc1F [Example 22] | 1.71^[a]; | 1.68^[b] |
| O=C(Nc1cnn(-c2ccccc2Cl)c1C(F)(F)F)c1cccnc1C(F)F [Example 77] | 2.58^[a]; | 2.53^[b] |
| O=C(Nc1cnn(-c2ccc(Cl)cc2)c1-c1cccc(F)c1)c1cccnc1C(F)F [Example 197] | 3.07^[a] | – |
